Laboratory results published in US20260315468A1, “PHARMACEUTICAL COMPOSITION AND USE THEREOF” (SHANGHAI ALLIST PHARMACEUTICAL CO., LTD., priority 2022, published 2026).

System: EGFR PACC mutant NSCLC
Assay: Clinical trial, open-label, multi-center, dose-escalation and dose expansion, preliminary tumor assessment
Format: in vivo, human
Details: for Maximum SLD % change from baseline: one patient
Text: An open-label, multi-center, dose-escalation and dose expansion study was designed and carried out to evaluate the safety, pharmacokinetics (PK), and preliminary antitumor activity of furmonertinib in patients with advanced or metastatic non-small cell lung cancer (NSCLC) with activating (including uncommon) Epidermal Growth Factor Receptor (EGFR) or Human Epidermal Growth Factor Receptor 2 (HER2) mutations. The first stage of the trial involved a dose escalation trial segment to evaluate once-daily dosing of furmonertinib starting at 240 mg daily, with subsequent patient cohorts to be administered furmonertinib at a higher or lower dose, if necessary, followed by expansion cohorts in defined patient groups with furmonertinib administered at 240 mg (and 160 mg in the case of EGFR PACC mutant NSCLC) daily.
General enrollment criteria include: • 1) Histologically or cytologically documented, locally advanced or metastatic Non-Small Cell Lung Cancer (NSCLC) not amenable to curative surgery or radiotherapy; • 2) Disease that has progressed after at least one available standard therapy; or for whom standard therapy has proven to be ineffective or intolerable; or for whom a clinical trial of an investigational agent is a recognized standard of care; • 3) Documented radiologic disease progression during or after the last systemic anti-cancer therapy before the first dose of furmonertinib; • 4) For patients with Epidermal Growth Factor Receptor (EGFR) mutations sensitive to osimertinib, the patient must have received osimertinib prior to study enrollment in regions where osimertinib is approved, including the US.
Exclusion criteria include: • 1) Treatment with chemotherapy, targeted therapy, biologic therapy or an investigational agent as anti-cancer therapy within […] or 5 elimination half-lives prior to initiation of furmonertinib, whichever is shorter; • 2) Radiation therapy as cancer therapy within 4 weeks prior to initiation of furmonertinib; • 3) Palliative radiation to bone metastases within 2 weeks prior to initiation of furmonertinib; • 4) AE from prior anticancer therapy that have not resolved to Grade ≤1 except for alopecia or Grade ≤2 peripheral neuropathy.

SMILES: C=CC(=O)Nc1cc(Nc2nccc(-c3cn(C)c4ccccc34)n2)c(OCC(F)(F)F)nc1N(C)CCN(C)C [furmonertinib, N-{2-{[2-(dimethylamino)ethyl](methyl)amino}-6-(2,2,2-trifluoroethoxy)-5-{[4-(1-methyl-1H-indol-3-yl)pyrimidin-2-yl]amino}pyridin-3-yl}acrylamide]
- Maximum SLD % change from baseline (160 mg QD, EGFR mutation E709A + L858R, prior anti-tumor therapy: None): −40%
- tumor size and clinical activity (240 mg QD and 160 mg QD, NSCLC patients with EGFR PACC mutation, no previous TKI treatment): a decrease in tumor size and clinical activity
- Maximum SLD % change from baseline (240 mg QD, EGFR mutation G719A, prior anti-tumor therapy: None): −23%
- Maximum SLD % change from baseline (240 mg QD, EGFR mutation S768I + V769L, prior 1L: CARBOPLATIN + PEMETREXED + PEMBROLIZUMAB): −30%
